# Patent US20060150260A1, “Genes related to drug resistance” (Northwestern University, priority 2004, published 2006)
# What was measured:
# Format in all cases: cell-based, human
# [1] = tested on: B6-containing MCF-7 cells; assay: Mitochondrial mass, MitoFluor 589 staining, flow cytometry; conditions: 4OHTAM for 72 hr
# Experimental: MitoTracker Red CMXRos (mitochondrial membrane potential) and MitoFluor 589 (mitochondrial mass detection): both dyes were obtained from Molecular Probes, Calif., and added to cells (250 nM final concentration) for 25 min at 37° C. in the CO2 incubator. Cells were then trypsinized and analyzed by flow cytometry or by fluorescent microscope.
# (§1) Flow Cytometry was performed using a Beckman Coulter Epics XL-MCL (Beckman, Fla.) with System II v. 3.0 software and CYAN (DakoCytomation, Colo.) and Summit v. 3.3 software.
# The fate of mitochondria was also examined in experiments assessing mitochondrial activity (FIG. 7C). […] The intracellular content of this organelle on a per cell basis remains fairly constant with only insignificant fluctuations (FIG. 7B), indicating a tight control of the number of mitochondria per cell. 1S A population of B6-containing cells treated with 4OHTAM for 72 hr contains approximately 30% of cells with reduced mitochondrial content (67% have normal mitochondrial content), which is close to the distribution of parental MCF-7 cells treated for 48 hr (FIG. 7B). At the same two timepoints mitochondrial activity distributions are vastly different: a separate low-activity peak for MCF-7 and a barely noticeable asymmetry (“shoulder”) for B6-cells (FIG. 7C). The present invention is not limited to a particular mechanism. […]
# MCF-7 cells [2] = assay: Cell growth with 4OHTAM; design: cell growth: dose or concentration left out as unconfirmed
# Experimental: Cells: MCF-7 (ATCC: HTB-22) cells were grown in Dulbecco's Modified Eagle's medium, 2 mM glutamine, 0.1 mM non-essential amino acids, 10 units/ml of penicillin, 10 μg/ml of streptomycin (all—Invitrogen, Calif.), supplemented with 10% fetal bovine serum (HyClone, Utah), 6 μg/ml of insulin (Sigma, Mo.), 30 μg/ml of fungin, and 10 μg/ml of plasmocin (both—InvivoGen, Calif.). 4-Hydroxytamoxifen (Sigma, Mo.) was used as 10 mM stock solution in ethanol and stored at −20° C.
# To gain a better understanding of changes induced by the RIGs, cell growth of RIGs-expressing populations was evaluated with and without 4OHTAM (FIG. 3). In drug-free media the proliferation rate of the B4 RIG-expressing cells was at least equal to parental MCF-7 cells or GFP-expressing control, while for B6, D10 and E5 the proliferation rate was higher (FIG. 3A). […] It is contemplated that cessation of growth for parental and control cells reflects terminal damage and initial stages of cellular demise, whereas for RIG E5-expressing cells cessation of growth is a protective response to drug exposure.
# MCF-7 cells [3] = assay: Apoptosis check: propidium iodide DNA content (FACS) and DNA ladder
# Experimental: Cell staining. Propidium iodide (DNA content): cells were permeabilized with cold EtOH, incubated with propidium iodide/RNase staining buffer (BD Bioscience, Calif.) for 15 min at room temperature, and analyzed by flow cytometry.
# as §1
# [4] = tested on: GFP-expressing MCF-7 control cells; assay: Colony forming assay after 4OHTAM treatment, GFP control; conditions: 7.5 µM of 4OHTAM, 14 days treatment
# Experimental: (§2) Colony Forming Assay: five hundred cells were plated per 60 mm plate and allowed to recover overnight. […] Treatment continued for 14 days with media replacement every two days; then cells were allowed to recover for two weeks, fixed with alcohol and stained with crystal violet (2% w/v). Colonies (over 150 cells per group) were counted. Experiments were done in triplicate.
# (§3) Resistance was determined by colony-forming assay as described in Materials and Methods: plates were stained, and colonies were counted (FIG. 2B); results of the experiment were plotted (FIG. 2C). […] In heterogeneous populations the level of resistance is lower than in single-cell clones (presence of cells without inserts, different levels of expression, etc), so resistance induced by selected cDNAs in individual cells can be much higher. As selected cDNAs induced resistance to 4OHTAM, they were considered to be resistance-inducing genes (RIGs).
# [5] = tested on: MCF-7 cells infected with cDNA inserts B4, B6, D10, E5; assay: Colony forming assay after 4OHTAM treatment, cDNA (RIG)-containing populations
# Experimental: as §2, §3
substance,measurement,setting,value
4-Hydroxytamoxifen [4OHTAM],cells with normal mitochondrial content,[1],67%
same,cells with reduced mitochondrial content,[1],approximately 30%
same,cell proliferation,"MCF-7 cells [2]; 10 mM 4OHTAM, MCF-7 cells",blocked
same,cell growth,MCF-7 cells [2]; RIGs-containing and parental cells,inhibited
same,DNA fragmentation pattern (DNA ladder),MCF-7 cells [3]; genomic DNA of 4OHTAM-treated cells,no characteristic DNA fragmentation pattern (DNA ladder) was detected
same,apoptotic sub-G1 peak in FACS profiles,MCF-7 cells [3]; up to 20 μM 4OHTAM,No evidence was found of a characteristic sub-G1 peak
same,"survival of GFP-expressing control, colony formation assay",[4],> 10%
same,resistance of cDNA-expressing cells relative to control (EGFP-only) cells,"[5]; 7.5 μM 4OHTAM, colony-forming assay",five-six times more resistant
same,"survival of populations, colony formation assay","[5]; cDNA-containing populations, 7.5 µM of 4OHTAM, 14 days treatment",~65%
